Assay results: article PMC5308906 (Angewandte Chemie (International ed. in English), 2016)
One block for each substance: values may come before it. No end group written: not given here.

Columns and labels:
[1] = system: Rat hearts subjected to I/R; test: Langendorff ex vivo model of myocardial infarction; conditions: ψDrp1 alanine substitution study, n=4
[2] = system: phosphorylation of Drp1; test: Drp1 phosphorylation after cardiac I/R, ψDrp1 derivatives; conditions: hearts subjected to I/R
[3] = molecular target: δPKC (Homo sapiens, UniProt Q05655); test: In vitro binding assay of δPKC to the peptides
[4] = system: H9c2 cells; format: cell-based; conditions: H9c2, ischemia and reoxygenation
[5] = system: H9c2 cells; test: Mitochondrial ROS production; conditions: H9c2, ischemia and reoxygenation; peptide 2 μM
[6] = molecular target: T1, εPKC (Homo sapiens, UniProt Q02156); test: In vitro binding assay of εPKC to the peptides; conditions: εPKC at ~75 μg/mL (~1 μM)
T1 sequence (Q02156 1-737): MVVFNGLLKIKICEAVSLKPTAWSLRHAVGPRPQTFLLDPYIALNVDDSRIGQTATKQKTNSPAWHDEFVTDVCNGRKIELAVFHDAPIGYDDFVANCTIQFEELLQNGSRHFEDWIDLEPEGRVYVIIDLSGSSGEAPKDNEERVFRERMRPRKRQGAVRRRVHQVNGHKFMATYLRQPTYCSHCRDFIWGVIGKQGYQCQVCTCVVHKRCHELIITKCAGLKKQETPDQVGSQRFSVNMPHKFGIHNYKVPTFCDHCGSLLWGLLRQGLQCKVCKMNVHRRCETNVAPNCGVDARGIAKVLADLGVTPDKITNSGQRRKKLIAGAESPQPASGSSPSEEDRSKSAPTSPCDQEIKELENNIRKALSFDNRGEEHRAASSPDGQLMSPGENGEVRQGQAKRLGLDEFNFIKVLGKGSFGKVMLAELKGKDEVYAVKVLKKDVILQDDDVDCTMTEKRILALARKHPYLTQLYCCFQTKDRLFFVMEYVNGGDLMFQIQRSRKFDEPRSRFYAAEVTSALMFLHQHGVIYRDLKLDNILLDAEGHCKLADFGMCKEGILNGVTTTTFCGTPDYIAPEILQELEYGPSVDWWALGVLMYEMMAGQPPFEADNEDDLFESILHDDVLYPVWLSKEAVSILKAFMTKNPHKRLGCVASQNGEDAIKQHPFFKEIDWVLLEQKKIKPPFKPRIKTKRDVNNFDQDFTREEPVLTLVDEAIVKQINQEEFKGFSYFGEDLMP

δPKC, sequence (Q05655 whole entry): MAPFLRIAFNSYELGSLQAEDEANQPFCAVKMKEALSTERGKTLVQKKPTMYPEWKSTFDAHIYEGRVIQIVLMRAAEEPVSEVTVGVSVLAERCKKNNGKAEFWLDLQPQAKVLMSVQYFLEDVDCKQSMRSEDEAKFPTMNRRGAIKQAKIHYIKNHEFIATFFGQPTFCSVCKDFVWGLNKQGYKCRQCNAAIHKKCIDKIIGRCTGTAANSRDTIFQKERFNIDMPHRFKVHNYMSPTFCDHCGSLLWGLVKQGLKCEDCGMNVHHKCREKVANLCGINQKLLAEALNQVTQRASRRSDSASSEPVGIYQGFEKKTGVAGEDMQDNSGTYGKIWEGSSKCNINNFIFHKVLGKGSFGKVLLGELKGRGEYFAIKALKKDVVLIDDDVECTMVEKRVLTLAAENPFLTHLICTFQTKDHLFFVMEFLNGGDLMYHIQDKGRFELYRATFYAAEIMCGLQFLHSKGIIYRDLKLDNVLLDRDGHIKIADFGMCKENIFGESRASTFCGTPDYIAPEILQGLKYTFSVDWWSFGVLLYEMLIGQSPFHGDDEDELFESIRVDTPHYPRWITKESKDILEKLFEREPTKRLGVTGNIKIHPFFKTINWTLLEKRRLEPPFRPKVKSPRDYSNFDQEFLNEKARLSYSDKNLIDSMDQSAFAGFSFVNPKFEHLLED

Substance: YTAFDE-TAT [ψDrp1 Asp3 Ala]
Protection from cardiac damage [1]: 65%
Effect on Drp1 phosphorylation [2]: inhibited Drp1 phosphorylation

Kd [3]: 1.4 ± 0.3 nM
Substance: YTDFDE [ψDrp1-Cargo]

Substance: YGRKKRRQRRRGGYTDFDE-NH2 (C-terminus assumed) [ψDrp1]
Effect on mitochondrial function and cell viability [4]: rescued mitochondrial function and cell viability
Protection from cardiac damage [1]: 75%
Effect on excessive mitochondrial ROS production [5]: decreased excessive mitochondrial ROS production

Binding to εPKC [6]: not to the another PKC isozyme, εPKC
Substance: RAAEEP-NH2 (C-terminus assumed) [ψMARCKS-Cargo]
